Assay type in all cases: functional, cell-based
The subject of experiment [1] is A549. The experiment is described as follows: Cytotoxicity against A549 cells after 48 hrs by MTT assay. As to conditions: Homo sapiens, A549, 48 h.
For experiment [2], the system named is SMMC-7721. The experiment is described as follows: Cytotoxicity against SMMC7721 cells after 48 hrs by MTT assay. As to conditions: Homo sapiens, SMMC-7721, 48 h.
For experiment [3], the system named is AGS. The experiment is described as follows: Cytotoxicity against AGS cells after 48 hrs by MTT assay. As to conditions: Homo sapiens. (Formazan colour is commonly taken as a measure of viable cells.)
Experiment [4] has as its system HT-29. The experiment is described as follows: Cytotoxicity against HT29 cells after 48 hrs by MTT assay. To be noted: Homo sapiens, HT-29, 48 h.

We go through 4 compounds from ChEMBL document CHEMBL1146228, “Stellettins L and M, cytotoxic isomalabaricane-type triterpenes, and sterols from the marine sponge Stelletta tenuis” (J Nat Prod, 2007).

A word on the IC50: it is the concentration at which inhibition is half-maximal. Low readings indicate inhibition by little substance, high ones a need for much substance.

As to `CC(/C=C/C=C(C)/C=C/C=C(\C)C(=O)O)=C1/C(=O)C[C@H]2[C@@]3(C)CC[C@H](O)C(C)(C)[C@@H]3CC[C@]12C` [STELLETTIN M], the IC50 in experiment [1] amounted to 34 µM; in experiment [2], 90 µM; in experiment [3], 2.1 µM; in experiment [4], 42 µM.

Turning to `CC(/C=C/C=C(\C)C(=O)O)=C\C=C\C(C)=C1\C(=O)C[C@H]2[C@@]3(C)CC[C@H](O)C(C)(C)[C@@H]3CC[C@]12C` [STELLETTIN L], the IC50 amounted to 28 µM in experiment [1], 120 µM in experiment [2], 3.9 µM in experiment [3] and 33 µM in experiment [4].

For `O=c1[nH]cc(F)c(=O)[nH]1` [FLUOROURACIL], the IC50 in experiment [1] came out at 9.2 µM; in experiment [2] it was 51 µM; in experiment [3], 370 µM; in experiment [4], 540 µM.

For the compound `CC[C@]1(O)C[C@H]2CN(CCc3c([nH]c4ccccc34)[C@@](C(=O)OC)(c3cc4c(cc3OC)N(C=O)[C@H]3[C@@](O)(C(=O)OC)[C@H](OC(C)=O)[C@]5(CC)C=CCN6CC[C@]43[C@@H]65)C2)C1` [VINCRISTINE], the IC50 in experiment [1] is 0.36 µM; in experiment [2], below 0.12 µM; in experiment [3] it was below 0.12 µM; in experiment [4], 0.21 µM.
